Measurements taken from patent US20260265252A1, “SOLID STATE FORMS OF IMIPRIDONE DERIVATIVE” (CHIMERIX, INC., priority 2024, published 2026).
Counter-ions that a name gives are not always drawn.

Assay: ICH-compliant stability study of ONC206-HCl Drug Substance (appearance, XRPD form, HPLC assay, purity/impurities, water content, particle size, microbial)
Assay type: physicochemical
Set-up: key to Each unidentified impurity (NMT 0.5% area) / Appearance (White to off-white solid) / Polymorphic form (XRPD) (Consistent with form 2 reference diffractogram): C = Conforms; A = Absence
Method: The purpose of the ICH-compliant stability study was to evaluate the performance to specifications of ONC206-HCl Drug Substance under specified container closure configuration, storage conditions, and intervals.
The study was performed according to ICH Q1A(R2) and QlE Guidance documents. […]
The Container Closure Systems were: • Primary container: LDPE bag, 4×8 inches (Source: Nexus—64378); bag closure PE 180 nm (Source: Entourage), • Secondary container: LDPE bag, 4×8 inches (Source: Nexus—64378); bag closure PE 180 nm (Source: Entourage), • Tertiary container: Heat-sealed foil bag, 15×30 (Source: SERCALIA S.L.—10234), and • Outer container: Plastic drum, 6 L (Source: Curtec, HDPE ref 54021) or Plastic drum, 3.6 L (Source: Curtec).

[1] = 25 ± 2° C./60% ± 5% RH long term storage conditions, 0 months
[2] = 25 ± 2° C./60% ± 5% RH long term storage conditions, 3 months
[3] = 25 ± 2° C./60% ± 5% RH long term storage conditions, 6 months
[4] = 25 ± 2° C./60% ± 5% RH long term storage conditions, 9 months
[5] = 25 ± 2° C./60% ± 5% RH long term storage conditions, 12 months
[6] = 30 ± 2° C./65% ± 5% RH intermediate conditions, 0 months
[7] = 30 ± 2° C./65% ± 5% RH intermediate conditions, 6 months
[8] = 30 ± 2° C./65% ± 5% RH intermediate conditions, 9 months

O=C1C2=C(CCN(Cc3ccccc3)C2)N2CCN=C2N1Cc1ccc(F)cc1F [ONC206-HCl, 7-benzyl-4-(2,4-difluorobenzyl)-2,4,6,7,8,9-hexahydroimidazo[1,2-a]pyrido[3,4-e]pyrimidin-5(1H)-one]
period over which stability is confirmed (2-8° C. (Table 39)): 6 months | Appearance (White to off-white solid) (2-8° C., 0 months): C | Assay by HPLC-UV (Anhydrous & Solvent Free basis) 97.0-103.0% w/w (2-8° C., 0 months): 101.6 % w/w | Each unidentified impurity (NMT 0.5% area) (2-8° C., 0 months): C | Particle Size (Malvern) D10 (Report result μm) (2-8° C., 0 months): 28.2 μm | Particle Size (Malvern) D50 (Report result μm) (2-8° C., 0 months): 91.4 μm | Particle Size (Malvern) D90 (Report result μm) (2-8° C., 0 months): 201.3 μm | Polymorphic form (XRPD) (Consistent with form 2 reference diffractogram) (2-8° C., 0 months): C | Purity by HPLC (NLT 98.0% area) (2-8° C., 0 months): 100.0 % area | Total impurities (NMT 2.0% area) (2-8° C., 0 months): 0.00 % area | Water Content by Kf (Report result % w/w) (2-8° C., 0 months): 9.3 % w/w | Appearance (White to off-white solid) (2-8° C., 1 months): C | Assay by HPLC-UV (Anhydrous & Solvent Free basis) 97.0-103.0% w/w (2-8° C., 1 months): 101.3 % w/w | Each unidentified impurity (NMT 0.5% area) (2-8° C., 1 months): C | Particle Size (Malvern) D10 (Report result μm) (2-8° C., 1 months): 27.8 μm | Particle Size (Malvern) D50 (Report result μm) (2-8° C., 1 months): 89.8 μm | Particle Size (Malvern) D90 (Report result μm) (2-8° C., 1 months): 196.0 μm | Polymorphic form (XRPD) (Consistent with form 2 reference diffractogram) (2-8° C., 1 months): C | Purity by HPLC (NLT 98.0% area) (2-8° C., 1 months): 100.0 % area | Total impurities (NMT 2.0% area) (2-8° C., 1 months): 0.00 % area | Water Content by Kf (Report result % w/w) (2-8° C., 1 months): 9.2 % w/w | Appearance (White to off-white solid) (2-8° C., 2 months): C | Assay by HPLC-UV (Anhydrous & Solvent Free basis) 97.0-103.0% w/w (2-8° C., 2 months): 100.3 % w/w | Each unidentified impurity (NMT 0.5% area) (2-8° C., 2 months): C | Particle Size (Malvern) D10 (Report result μm) (2-8° C., 2 months): 29.4 μm | Particle Size (Malvern) D50 (Report result μm) (2-8° C., 2 months): 91.6 μm | Particle Size (Malvern) D90 (Report result μm) (2-8° C., 2 months): 189.0 μm | Polymorphic form (XRPD) (Consistent with form 2 reference diffractogram) (2-8° C., 2 months): C | Purity by HPLC (NLT 98.0% area) (2-8° C., 2 months): 100.0 % area | Total impurities (NMT 2.0% area) (2-8° C., 2 months): 0.00 % area | Water Content by Kf (Report result % w/w) (2-8° C., 2 months): 9.4 % w/w | Appearance (White to off-white solid) (2-8° C., 3 months): C | Assay by HPLC-UV (Anhydrous & Solvent Free basis) 97.0-103.0% w/w (2-8° C., 3 months): 100.3 % w/w | Each unidentified impurity (NMT 0.5% area) (2-8° C., 3 months): C | Particle Size (Malvern) D10 (Report result μm) (2-8° C., 3 months): 28.3 μm | Particle Size (Malvern) D50 (Report result μm) (2-8° C., 3 months): 90.9 μm | Particle Size (Malvern) D90 (Report result μm) (2-8° C., 3 months): 197.0 μm | Polymorphic form (XRPD) (Consistent with form 2 reference diffractogram) (2-8° C., 3 months): C | Purity by HPLC (NLT 98.0% area) (2-8° C., 3 months): 100.0 % area | Total impurities (NMT 2.0% area) (2-8° C., 3 months): 0.00 % area | Water Content by Kf (Report result % w/w) (2-8° C., 3 months): 9.5 % w/w | Appearance (White to off-white solid) (2-8° C., 6 months): C | Assay by HPLC-UV (Anhydrous & Solvent Free basis) 97.0-103.0% w/w (2-8° C., 6 months): 99.6 % w/w | Each unidentified impurity (NMT 0.5% area) (2-8° C., 6 months): C | Particle Size (Malvern) D10 (Report result μm) (2-8° C., 6 months): 28.3 μm | Particle Size (Malvern) D50 (Report result μm) (2-8° C., 6 months): 91.1 μm | Particle Size (Malvern) D90 (Report result μm) (2-8° C., 6 months): 199.0 μm | Polymorphic form (XRPD) (Consistent with form 2 reference diffractogram) (2-8° C., 6 months): C | Purity by HPLC (NLT 98.0% area) (2-8° C., 6 months): 100.0 % area | Total impurities (NMT 2.0% area) (2-8° C., 6 months): 0.00 % area | Water Content by Kf (Report result % w/w) (2-8° C., 6 months): 9.3 % w/w | period over which stability is confirmed (25° C. (Table 42), 60% RH long term storage conditions): 12 months | Appearance (White to off-white solid) [1]: C | Assay by HPLC-UV (Anhydrous & Solvent Free basis) 97.0-103.0% w/w [1]: 101.6 % w/w | Each unidentified impurity (NMT 0.5% area) [1]: C | Particle Size (Malvern) D10 (Report result μm) [1]: 28.2 μm | Particle Size (Malvern) D50 (Report result μm) [1]: 91.4 μm | Particle Size (Malvern) D90 (Report result μm) [1]: 201.3 μm | Polymorphic form (XRPD) (Consistent with form 2 reference diffractogram) [1]: C | Purity by HPLC (NLT 98.0% area) [1]: 100.0 % area | Total impurities (NMT 2.0% area) [1]: 0.00 % area | Water Content by Kf (Report result % w/w) [1]: 9.3 % w/w | Appearance (White to off-white solid) [2]: C | Assay by HPLC-UV (Anhydrous & Solvent Free basis) 97.0-103.0% w/w [2]: 99.1 % w/w | Each unidentified impurity (NMT 0.5% area) [2]: C | Particle Size (Malvern) D10 (Report result μm) [2]: 28.3 μm | Particle Size (Malvern) D50 (Report result μm) [2]: 91.4 μm | Particle Size (Malvern) D90 (Report result μm) [2]: 199.0 μm | Polymorphic form (XRPD) (Consistent with form 2 reference diffractogram) [2]: C | Purity by HPLC (NLT 98.0% area) [2]: 100.0 % area | Total impurities (NMT 2.0% area) [2]: 0.00 % area | Water Content by Kf (Report result % w/w) [2]: 9.5 % w/w | Appearance (White to off-white solid) [3]: C | Assay by HPLC-UV (Anhydrous & Solvent Free basis) 97.0-103.0% w/w [3]: 100.2 % w/w | Each unidentified impurity (NMT 0.5% area) [3]: C | Particle Size (Malvern) D10 (Report result μm) [3]: 26.8 μm | Particle Size (Malvern) D50 (Report result μm) [3]: 88.5 μm | Particle Size (Malvern) D90 (Report result μm) [3]: 196.0 μm | Polymorphic form (XRPD) (Consistent with form 2 reference diffractogram) [3]: C | Purity by HPLC (NLT 98.0% area) [3]: 100.0 % area | Total impurities (NMT 2.0% area) [3]: 0.00 % area | Water Content by Kf (Report result % w/w) [3]: 9.3 % w/w | Appearance (White to off-white solid) [4]: C | Assay by HPLC-UV (Anhydrous & Solvent Free basis) 97.0-103.0% w/w [4]: 100.4 % w/w | Each unidentified impurity (NMT 0.5% area) [4]: C | Particle Size (Malvern) D10 (Report result μm) [4]: 30.2 μm | Particle Size (Malvern) D50 (Report result μm) [4]: 92.2 μm | Particle Size (Malvern) D90 (Report result μm) [4]: 192.0 μm | Polymorphic form (XRPD) (Consistent with form 2 reference diffractogram) [4]: C | Purity by HPLC (NLT 98.0% area) [4]: 100.0 % area | Total impurities (NMT 2.0% area) [4]: 0.00 % area | Water Content by Kf (Report result % w/w) [4]: 9.3 % w/w | Appearance (White to off-white solid) [5]: C | Assay by HPLC-UV (Anhydrous & Solvent Free basis) 97.0-103.0% w/w [5]: 99.6 % w/w | Each unidentified impurity (NMT 0.5% area) [5]: C | Particle Size (Malvern) D10 (Report result μm) [5]: 28.1 μm | Particle Size (Malvern) D50 (Report result μm) [5]: 91.3 μm | Particle Size (Malvern) D90 (Report result μm) [5]: 203.0 μm | Polymorphic form (XRPD) (Consistent with form 2 reference diffractogram) [5]: C | Purity by HPLC (NLT 98.0% area) [5]: 100.0 % area | Total impurities (NMT 2.0% area) [5]: 0.00 % area | Water Content by Kf (Report result % w/w) [5]: 9.3 % w/w | period over which stability is confirmed (30° C. (Table 43), 65% RH intermediate conditions): 12 months | Appearance (White to off-white solid) [6]: C | Assay by HPLC-UV (Anhydrous & Solvent Free basis) 97.0-103.0% w/w [6]: 101.6 % w/w | Each unidentified impurity (NMT 0.5% area) [6]: C | Particle Size (Malvern) D10 (Report result μm) [6]: 28.2 μm | Particle Size (Malvern) D50 (Report result μm) [6]: 91.4 μm | Particle Size (Malvern) D90 (Report result μm) [6]: 201.3 μm | Polymorphic form (XRPD) (Consistent with form 2 reference diffractogram) [6]: C | Purity by HPLC (NLT 98.0% area) [6]: 100.0 % area | Total impurities (NMT 2.0% area) [6]: 0.00 % area | Water Content by Kf (Report result % w/w) [6]: 9.3 % w/w | Appearance (White to off-white solid) [7]: C | Assay by HPLC-UV (Anhydrous & Solvent Free basis) 97.0-103.0% w/w [7]: 99.2 % w/w | Each unidentified impurity (NMT 0.5% area) [7]: C | Particle Size (Malvern) D10 (Report result μm) [7]: 29.3 μm | Particle Size (Malvern) D50 (Report result μm) [7]: 92.1 μm | Particle Size (Malvern) D90 (Report result μm) [7]: 199.0 μm | Polymorphic form (XRPD) (Consistent with form 2 reference diffractogram) [7]: C | Purity by HPLC (NLT 98.0% area) [7]: 100.0 % area | Total impurities (NMT 2.0% area) [7]: 0.00 % area | Water Content by Kf (Report result % w/w) [7]: 9.3 % w/w | Appearance (White to off-white solid) [8]: C | Assay by HPLC-UV (Anhydrous & Solvent Free basis) 97.0-103.0% w/w [8]: 100.2 % w/w | Each unidentified impurity (NMT 0.5% area) [8]: C
